Data: the supplement of paper PMC11061612

Key:
Test in all cases: combination Emax (second highest fraction inhibited in the dose matrix, 72 h); higher = more inhibition; extreme values may be limits of the assay
WM278 (Melanoma) = test system: WM278 (Melanoma)
Outline: (§1)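 Cell lines in DMEM/F12 or RPMI with 10% FBS were plated in 1536-well plates, held 24 hours at 37°C, 5% CO2, then given two-drug dose matrices for 72 hours (DMSO typically 0.2%). Viability was read by CellTiter-Glo 2.0 luminescence and scaled as inhibition from 0 (vehicle wells) to 1 (blank wells). Combination Emax is the second-highest inhibition in the matrix; Bliss excess is observed combination effect minus expected EA + EB − EA·EB, EA and EB being single-agent effects.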

[1] = test system: RKN (Other Solid Carcinomas)
Outline: as §1

[2] = test system: FADU (Head and Neck Carcinoma)
Outline: as §1

WM793B (Melanoma) = test system: WM793B (Melanoma)
Outline: as §1

[3] = test system: SHP-77 (Small Cell Lung Carcinoma)
Outline: as §1

[4] = test system: SU-DHL-10 (B-Cell Non-Hodgkin's Lymphoma)
Outline: as §1

[5] = test system: OAW-42 (Ovarian Carcinoma)
Outline: as §1

[6] = test system: HCT-15 (Colorectal Carcinoma)
Outline: as §1

[7] = test system: HSC-39 (Gastric Carcinoma)
Outline: as §1

[8] = test system: NCI-H2342 (Lung Adenocarcinoma)
Outline: as §1

[9] = test system: RERF-GC-1B (Gastric Carcinoma)
Outline: as §1

[10] = test system: COLO-680N (Esophageal Squamous Cell Carcinoma)
Outline: as §1

[11] = test system: LB996-RCC (Kidney Carcinoma)
Outline: as §1

[12] = test system: PSN1 (Pancreatic Carcinoma)
Outline: as §1

A2058 (Melanoma) = test system: A2058 (Melanoma)
Outline: as §1

[13] = test system: RCM-1 (Colorectal Carcinoma)
Outline: as §1

[14] = test system: RERF-LC-Sq1 (Squamous Cell Lung Carcinoma)
Outline: as §1

[15] = test system: REH (B-Lymphoblastic Leukemia)
Outline: as §1

[16] = test system: MKN45 (Gastric Carcinoma)
Outline: as §1

[17] = test system: NCI-H23 (Lung Adenocarcinoma)
Outline: as §1

| SMILES | combination Emax (WM278 (Melanoma)) | combination Emax [1] | combination Emax [2] | combination Emax (WM793B (Melanoma)) | combination Emax [3] | combination Emax [4] | combination Emax [5] | combination Emax [6] | combination Emax [7] | combination Emax [8] | combination Emax [9] | combination Emax [10] | combination Emax [11] | combination Emax [12] | combination Emax (A2058 (Melanoma)) | combination Emax [13] | combination Emax [14] | combination Emax [15] | combination Emax [16] | combination Emax [17] |
| --- | --- | --- | --- | --- | --- | --- | --- | --- | --- | --- | --- | --- | --- | --- | --- | --- | --- | --- | --- | --- |
| CC1(C)CCC(CN2CCN(c3ccc(C(=O)NS(=O)(=O)c4ccc(NCC5CCOCC5)c([N+](=O)[O-])c4)c(Oc4cnc5[nH]ccc5c4)c3)CC2)=C(c2ccc(Cl)cc2)C1 [Venetoclax] + C[C@@H]1COCCN1C2=NC(=NC(=C2)C3(CC3)[S@](=N)(=O)C)C4=C5C=CNC5=NC=C4 [AZD6738] (first compound max 1 µM, 7x7, partner max 10 µM) | 0.623 | 0.226 | 0.614 | 0.814 | 0.697 | 0.912 | 0.561 | 0.71 | 1 | 0.265 | 0.428 | 0.278 | 0.654 | 0.396 | 0.788 | 0.78 | 0.675 | 0.996 | 0.678 | 0.822 |
| CC1(C)CCC(CN2CCN(c3ccc(C(=O)NS(=O)(=O)c4ccc(NCC5CCOCC5)c([N+](=O)[O-])c4)c(Oc4cnc5[nH]ccc5c4)c3)CC2)=C(c2ccc(Cl)cc2)C1 [Venetoclax] + C[C@@H](Nc1cc(F)cc(F)c1)c1cc(C(=O)N(C)C)cc2c(=O)cc(N3CCOCC3)oc12 [AZD8186] (first compound max 1 µM, 7x7, partner max 3 µM) | 0.306 | 0.18 | 0.128 | 0.36 | 0.322 | 0.735 | 0.125 | 0.138 | 0.972 | 0.265 | 0.103 | 0.111 | 0.306 | 0.313 | 0.158 | 0.28 | 0.121 | 0.96 | 0.602 | 0.148 |
| CC1(C)CCC(CN2CCN(c3ccc(C(=O)NS(=O)(=O)c4ccc(NCC5CCOCC5)c([N+](=O)[O-])c4)c(Oc4cnc5[nH]ccc5c4)c3)CC2)=C(c2ccc(Cl)cc2)C1 [Venetoclax] + Cc1cc2ncnn2cc1Nc1ncc2c(n1)n(C1CCOCC1)c(=O)n2C [AZD7648] (first compound max 1 µM, 7x7, partner max 10 µM) | 0.269 | 0.157 | 0.237 | 0.309 | 0.34 | 0.249 | 0.425 | 0.229 | 0.936 | 0.214 | 0.28 | 0.161 | 0.373 | 0.37 | 0.203 | 0.362 | 0.229 | 0.875 | 0.588 | 0.184 |
| CC1(C)CCC(CN2CCN(c3ccc(C(=O)NS(=O)(=O)c4ccc(NCC5CCOCC5)c([N+](=O)[O-])c4)c(Oc4cnc5[nH]ccc5c4)c3)CC2)=C(c2ccc(Cl)cc2)C1 [Venetoclax] + Cn1cnc2c(F)c(Nc3ccc(Br)cc3Cl)c(C(=O)NOCCO)cc21 [Selumetinib] (first compound max 1 µM, 7x7, partner max 3 µM) | 0.633 | 0.291 | 0.364 | 0.42 | 0.455 | 0.072 | 0.147 | 0.156 | 0.936 | 0.193 | 0.27 | 0.159 | 0.156 | 0.622 | 0.493 | 0.571 | 0.312 | 0.897 | 0.65 | 0.264 |
